Eight molecules from ChEMBL document CHEMBL1133962, “Bicyclic anti-VZV nucleosides: Thieno analogues retain full antiviral activity” (Bioorg Med Chem Lett, 2001) can be followed below.

Molecules are shown by their SMILES. pEC50: −log10 of the molar value. Some results are limits rather than exact numbers.

As a reminder, the CC50 is the concentration giving 50% cytotoxicity. Low values mean greater toxicity to the cells, high ones lower toxicity to the cells. As usually defined, the pEC50 is the EC50 on a negative log10 scale, so that one unit is a factor of ten. A higher pEC50 goes with a small EC50.

The test system of test [1] is HEL. In words: Cytotoxic concentration required to inhibit growth of human embryonic lung cells (HEL). In kind it is functional.
Test [2] deals with HEL. Kind of test: Antiviral activity was measured as effective concentration required to reduce thymidine kinase-deficient. Varicella Zoster virus (YS/R)-induced plaque formation in human embryonic lung cells. It is filed as functional, cell-based.
Test [3] deals with HEL. Kind of test: Antiviral activity was measured as effective concentration required to reduce Varicella Zoster virus (OKA)-induced plaque formation in human embryonic lung cells. In kind it is functional, cell-based.
The test system of test [4] is HEL. Kind of test: Antiviral activity was measured as effective concentration required to reduce Varicella Zoster virus (YS)-induced plaque formation in human embryonic lung cells. It is filed as functional, cell-based.
Test [5] deals with HEL. In words: Antiviral activity was measured as effective concentration required to reduce thymidine kinase-deficient. Varicella Zoster virus (07/1)-induced plaque formation in human embryonic lung cells. It is filed as functional, cell-based.
Test [6] relates to HEL. Kind of test: Minimal cytotoxic concentration required to alter microscopically detectable cell (of human embryonic lung cells (HEL)) morphology. In kind it is functional.

In the case of `Nc1nc2c(ncn2COCCO)c(=O)[nH]1` [ACYCLOVIR], the half-maximal cytotoxic concentration (CC50) in the test on HEL [1] was > 400 µM. The pEC50 with HEL [2] was 4.36; with HEL [3], 5.96; in the test with HEL [4] it was 5.82; in the test on HEL [5], 4.40. The MCC in the test with HEL [6] was > 200 µM.

Consider `CCCCCCCCCc1cc2cn([C@H]3C[C@H](O)[C@@H](CO)O3)c(=O)nc2s1`, for which the CC50 in the test with HEL [1] was > 20 µM. In addition, the pEC50 in the test with HEL [2] was < 4.70; with HEL [3] it was 8.00; in the test with HEL [4], 8.00; in the test with HEL [5], < 4.70. Also, the MCC in the test on HEL [6] is > 20 µM.

Turning to `CCCCCCc1cc2cn([C@H]3C[C@H](O)[C@@H](CO)O3)c(=O)nc2s1`, the CC50 in the test with HEL [1] was > 200 µM. In addition, the pEC50 is ≤ 4.30 in the test with HEL [2], 6.85 in the test with HEL [3], 6.85 in the test on HEL [4] and ≤ 4.30 in the test with HEL [5]. Further, the MCC with HEL [6] came to 125 µM.

As to `CCCCCCCCCCCCc1cc2cn([C@H]3C[C@H](O)[C@@H](CO)O3)c(=O)nc2s1`, in the test on HEL [1], the CC50 is 49 µM. The pEC50 in the test with HEL [2] is < 5.30; in the test on HEL [3] it was 6.70; in the test with HEL [4], 6.52; in the test on HEL [5] it was < 5.30. This molecule registered an MCC in the test with HEL [6] of 12 µM.

Molecule `CCCCCCCCCCc1cc2cn([C@H]3C[C@H](O)[C@@H](CO)O3)c(=O)nc2s1` yielded a CC50 in the test on HEL [1] of 54 µM. Further, the pEC50 is < 5.30 with HEL [2], 7.52 in the test with HEL [3], 7.22 with HEL [4] and < 5.30 in the test on HEL [5]. In the test on HEL [6], this molecule yielded an MCC of 20 µM.

With `CCCCCCCCCCc1cc2cn([C@H]3C[C@H](O)[C@@H](CO)O3)c(=O)nc2o1`, the CC50 in the test with HEL [1] was > 50 µM. Further, the pEC50 in the test on HEL [2] was < 4.30; in the test on HEL [3], 7.82; with HEL [4], 8.10; in the test with HEL [5], < 4.30. The MCC in the test with HEL [6] is > 50 µM.

For the molecule `CCCCc1cc2cn([C@H]3C[C@H](O)[C@@H](CO)O3)c(=O)nc2s1`, in the test with HEL [1], the CC50 was > 200 µM. Further, the pEC50 with HEL [2] was 3.82; in the test with HEL [3], 6.80; in the test with HEL [4], 6.82; in the test with HEL [5] it was ≤ 3.70. In addition, the MCC in the test on HEL [6] is ≥ 100 µM.

As for `CCCCCCCCc1cc2cn([C@H]3C[C@H](O)[C@@H](CO)O3)c(=O)nc2s1`, half-maximal cytotoxicity in the test on HEL [1] (CC50) was put at 53 µM. Besides, the pEC50 was < 5.30 in the test with HEL [2], 8.70 with HEL [3], 8.30 in the test with HEL [4] and ≤ 5.30 in the test with HEL [5]. In the test with HEL [6], this molecule returned an MCC of 20 µM.
